SMILES strings stand for the structures. Bounds are passed on as bounds.

A word on the melting point: it is the temperature, or range, at which the solid turns liquid. `CCOC(=O)c1cnn2ccc3c(c12)CCO3`: the melting point was 138 to 139 °C.
As for `CCC1(CC)CN(C(C)(C)C)C(=O)C(CC)(CC)N1OC(=O)C(C)(C)C`, the figure is 58 to 60 °C; as for `O=C(NC1CCc2cc3c(cc2C1)OCC3)C(F)(F)F` (configuration not stated), 131 °C.
Regarding `C#CCOc1cc(-n2nc(C)ccc2=O)c(F)cc1C#N`, the melting point is 180 °C.
As for `CCN1C=C(C(=O)O)C(=O)CC1c1cccnc1` (configuration not stated), the figure is 197 to 199 °C; as for `CN1CC2CC1CN2c1ccc(NC=C2C(=O)NC(=O)c3ccc(I)cc32)cc1` (configuration not stated), 210 to 211 °C.
Regarding `CCOC(=O)c1sc(Oc2ccc(-n3cccc3)cc2)c2c1CCc1cnn(C)c1-2`, the melting point was 139 to 140 °C.
As for `O=C1CC(O)CC(/C=C/c2cccc(Cl)c2Cl)O1` (configuration not stated), the figure is 122 to 123 °C.
The value for `O=C1C2CCN(CC2)C1CC(c1ccccc1)c1ccccc1` (configuration not stated) was 107 °C.
The molecule `CCC(C)N(C)C(=O)c1cc2ccccc2c(-c2cccs2)n1` (configuration not stated) gave a melting point of 146 °C.
The value for `O=C(NCc1ccc(Cl)cc1)c1cn2c3c(cc(CN4CCOCC4)cc3c1=O)OC(c1ccccc1O)C2` (configuration not stated) was 239 °C; that for `NC(=O)c1nnn(Cc2ccc(Sc3ccc(Cl)cc3)c(Cl)c2)c1N` was 202 to 204 °C; that for `COc1cc(CCCC2OC(=O)NC2=O)ccc1OCc1nc(-c2ccccc2)sc1C` (configuration not stated) was 128 to 129 °C.
As for `O=C(Nc1noc2ccccc12)N1CCN(C(=O)OCc2ccccc2)CC1`, the figure is 137 to 138 °C; as for `CCC(=O)N1C(=O)C(=O)c2cc(Cl)ccc21`, 160 to 162 °C.
The value for `COc1cccc(C(=O)NN=C2CCc3ccccc3C2)c1C` was 138 °C.
As to `Cc1nc2ccccc2n2cnc(-c3nc(C4CC4)no3)c12`, the melting point lay in the range of 188 to 189 °C.
As for `CCOC(=O)N(N=C[N+](=O)[O-])c1ccc(C(=O)OC)c(S(=O)(=O)NC(C)(C)C)c1`, the figure is 142 to 145 °C; as for `CS(=O)(=O)Nc1ccc(C=CC(=O)O)cc1`, 218 °C; as for `O=C(O)c1cccc(COc2ccccc2Cl)c1COc1ccccc1Cl`, 107 to 109 °C.
As for `C(#Cc1ccccn1)CCc1nc2ccccc2s1`, the figure is 98.5 to 99.4 °C; as for `CC(C)(C)c1cc(C(=O)Nc2cccnc2NC(=O)NC23CC4CC(CC(C4)C2)C3)cc(C(C)(C)C)c1O`, 198 to 202 °C.
`CCC12OC1C(=O)C(Nc1ncnc3cc(OC)c(OC)cc13)=CC2=O` (configuration not stated) showed a melting point of 202 to 204 °C.
As for `O=CNc1cccc2c1SC1=NCCN12`, the figure is 217 °C.
The value for `COc1cc(Br)cc([N+](=O)[O-])c1OCc1ccccc1` was 74 to 76 °C; that for `Cc1nc2c(OCc3c(Cl)ccc(S(=O)(=O)N4CCC[C@H]4C(=O)NCc4ccc(C=NN)cc4)c3Cl)cccn2c1C` was 144 to 146 °C.
Take `O=C(O)COc1cccc2c1CCc1sc(SCCCC(c3ccccc3)c3ccccc3)nc1-2`: the melting point lay within 136 to 138 °C.
The value for `CCCCCCCCCCCCCCCCSCC(CO)NC(=O)OC(C)(C)C` (configuration not stated) was 48 to 50 °C.
With `COc1ccc(CCNC(=O)C2CCCCC2)cc1OC`, the melting point was 110 to 111 °C.
`CC1(C)CC(NC(=O)c2ccccc2)CC(C)(C)N1CC#N`: the melting point turned out to be 182 °C.
As for `Cc1nc(N2C[C@@H](C)N(Cc3ccc(F)cc3)C2=O)sc1C(=O)NCc1cc(F)cc(F)c1`, the figure is 159 to 160 °C.
The value for `CN(C)CCC(CCO)c1ccncc1` (configuration not stated) was 26 °C; that for `COc1cc2ncc(C#N)c(Nc3ccc(CCO)cc3)c2cc1OC` was 208 to 210 °C; that for `O=C1CC(c2ccccc2)Cc2[nH]ccc21` (configuration not stated) was 187 to 189 °C.
The value for `CCOC(=O)c1cc(NCc2ccccc2)c(Nc2ccc(C)cc2)c(S(N)(=O)=O)c1` was 159 to 160 °C; that for `Cc1oc(-c2ccccc2)nc1COc1ccc(C=C2SC(=O)NC2=O)cn1` was 225 to 226 °C; that for `Nc1ncnc2c1ncn2C=CC=O` was 258 to 260 °C.
Turning to `COC(=O)c1scc(-c2ccccc2)c1-c1ccc(S(=O)O)c(F)c1`, the melting point amounted to 133 °C.
In turn, `O=C(O)c1nc2cc(N3CCN(Cc4ccccc4)CC3)c([N+](=O)[O-])cc2[nH]c1=O` displayed a melting point of 278 to 280 °C.
The molecule `COC1NC(=O)C(OC)(OC)C1Cl` (configuration not stated) registered a melting point of 141 to 142 °C.
The molecule `O=C(Nc1cc2ncc(CN3CCCC3)cc2cc1F)c1ccc(-c2ccc(F)cc2)cc1F` displayed a melting point of 200 to 202 °C.
As for `CCc1nc2c(N)nc3ccccc3c2n1CCCS(=O)(=O)NC`, the figure is 225 to 228 °C; as for `Cc1nc2ccc(Cn3ccnc3)cc2nc1Cl`, 116 °C; as for `O=Cc1coc2ccc(Br)cc2c1=O`, 186 to 188 °C.
As for `Oc1cc(Cl)c2nc(-c3ccc(O)c(F)c3)cc(Br)c2c1`, the figure is 184 to 186 °C.
With `COc1cc(OC)c(C(=O)/C=C/C(=O)O)c(OC)c1`, the melting point lay within 151 to 153 °C.
The value for `CC(C)(C)c1cc(CCC2NC(=O)NC2=O)cc(C(C)(C)C)c1O` (configuration not stated) was 207 to 208 °C; that for `CCCCCCCCCCCCCCCCSCC(CNS(=O)(=O)CCCCl)n1nnnc1C` (configuration not stated) was 62 to 62.5 °C.
As for `CCOC(=O)C(=O)CC(=O)c1cn(Cc2ccc(O)cc2)c2ccccc2c1=O`, the figure is 179 to 181 °C; as for `CCOC(=O)C1=C(C)Nc2nc(N3CCOCC3)nc(N3CCOCC3)c2C1c1ccccc1C` (configuration not stated), 234 °C.
The value for `CC(=O)n1cc(C2C(=O)CC(C)(C)CC2=O)c2ccccc21` was 225 to 227 °C; that for `CC1=CC(C)(C)N2C(=O)C(=O)c3cc(C)cc1c32` was 157 to 161 °C.
On to `CCCC[C@H](NC(=O)[C@H](CC(C)C)NC(=O)c1ccc(OC)cc1)C(=O)CSCc1ccco1`, for which the melting point was 124 °C.
As for `Oc1ccccc1-c1nc2sc(-c3ccccc3O)nc2s1`, the figure is 300 °C; as for `Cc1nc(NC(=O)c2ccncc2)sc1C(=O)NCc1ccccc1`, 171 to 172 °C.
For `CS(=O)(=O)c1c(C(=O)O)ccc(Cl)c1F`, the melting point was in the range of 208 to 209 °C.
The value for `Cc1ccc(-n2nc(C)c(C(=O)O)n2)cc1` was 230 to 232 °C.
As for `CCCCC(=O)N[C@H]1CC[C@H](CCN2CCN(c3nccc4c3CCO4)CC2)CC1`, the figure is 180 °C; as for `CC(C)(O)CCCCCc1cccc(CCc2ccc(O)c(CO)c2)c1`, 73 to 75 °C.
As for `COc1ccc(NC(=O)CBr)c(C(=O)O)c1`, the figure is 172 to 173 °C; as for `CCNC1=NN(c2ccc(Cl)cc2)C(C)C1` (configuration not stated), 57 to 58 °C.
In turn, `COc1c(Cl)cc(NC(=O)OC(C)(C)C)cc1Cl` came in with a melting point of 115 to 116 °C.
On to `CC(=O)Oc1ccc(C(=O)OC2C=C(C)C(=O)CC(C)(C)C2O)cc1` (configuration not stated), for which the melting point is 132 to 133 °C.
As for `Cc1sc2c(Br)c3ccccc3c(-c3ccc(OS(=O)(=O)c4ccc(C(=O)O)c(O)c4)c(C(C)C)c3)c2c1C`, the figure is more than 225 °C; as for `COCCOc1cccc(-c2ccc(C3CCN(S(=O)(=O)C(C)(C)C(=O)O)CC3)cc2C)n1`, 142 to 146 °C.
As for `Cn1ncnc1COc1nc2c(cc1-c1cccc(F)c1)nnn2-c1ccccc1F`, the figure is 143 to 145 °C; as for `Nc1ccc2c(c1)CS(=O)(=O)N2CCF`, 119 to 121 °C.
The value for `CP(=O)(O)CC(F)CN` (configuration not stated) was 78 to 84 °C; that for `O=C(CCCCl)c1ccc2oc3ccc(C(=O)CCCCl)cc3c2c1` was 102 to 104 °C.
`Brc1ccc(C2CC(n3ccnc3)c3ccccc3N2)cc1` (configuration not stated) gave a melting point of 142 to 144 °C.
As for `O=P(O)(O)c1cccc(OCc2ccc3ccccc3c2)c1`, the figure is 131 to 134 °C; as for `O=C(O)C1CCc2c(OCc3ccccc3)cccc21` (configuration not stated), 133 °C; as for `CCC(CC)c1ccc(Cl)c2nc3n(c12)CCN3C(=O)c1ccc(Cl)nc1`, 205 to 207 °C.
Molecule `CC(N)c1cc(NC(=O)OC(C)(C)C)ccc1NC(=O)OC(C)(C)C` (configuration not stated) had a melting point of 170 °C.
The molecule `CCOC(=O)C(=CNNc1c(Cl)cc(C(F)(F)F)cc1Cl)C(=O)OCC` showed a melting point of 86 °C.
Molecule `COc1cc2nc(S(=O)Cc3nccc(N(C)C)c3F)[nH]c2cc1OC` (configuration not stated) registered a melting point of 208 to 210 °C.
As for `Cn1c2ccccc2c(=O)c2c(-c3ccccc3NC(=O)C(C)(C)C)cccc21`, the figure is 160 to 162 °C; as for `COc1ccc(-c2[nH]c(-c3cccc4ccccc34)nc2C(=O)Nc2nccs2)cc1`, 198 to 200 °C; as for `CCC(=O)NCC[C@@H]1CCc2cc(Br)c(O)cc21`, 146 to 148 °C.
As for `N#Cc1[nH]c(Br)c(C#N)c1Br`, the figure is 227 to 232 °C; as for `NCC1Cc2cc3c(cc2O1)CCCC3` (configuration not stated), more than 225 °C; as for `O=C(c1ccc(F)c(F)c1)N1CCC[C@H](c2nc(-c3ccc([N+](=O)[O-])cc3)no2)C1`, 138 to 140 °C.
In turn, `Cc1cnc2[nH]cc(/C=C3\N=C(NCC(C)C)NC3=O)c2c1` showed a melting point of 338 to 339 °C.
As for `O=C(CBr)c1cc2c(Cl)cccc2s1`, the figure is 116 to 118 °C; as for `Cn1c(-c2ccccc2Cl)nnc1-c1ccccc1Cl`, 140 °C; as for `CCOC(=O)/C=C/c1nc(COc2ccc(CCl)cc2OC)c(C)o1`, 107 to 108 °C.
On to `CCOC(=O)CS(=O)CCCCl` (configuration not stated), for which the melting point was 46 to 47 °C.
The value for `CCOCn1c(Br)c(Br)c(S(=O)(=O)C(F)(F)F)c1-c1ccc(Cl)cc1` was 133 to 135 °C.
The value for `COC(=O)c1nsc2nc3ccccc3n12` was 208 to 209 °C.
The value for `Nc1nc(C(=O)O)c(-c2ccncc2)s1` was 211 °C; that for `CN1CCN(c2ccc3c(=O)n4c(nc3c2)C(=O)c2cc(F)ccc2-4)CC1` was 242 to 244 °C.
The molecule `CCOC(=O)C1=C(C)NC(=S)N(C(=O)OCC)C1c1ccccc1OCc1ccccc1` (configuration not stated) returned a melting point of 153 to 155 °C.

The values above are taken from a melting point compilation (Tetko et al.; mined from patent text by program, amines drawn as free bases though some values may be those of a salt).
